Assay results: patent publication US7579356B2, “Thia-tetraazaacenaphthylene kinase inhibitors” (Janssen Pharmaceutica NV, priority 2005, dated 2009)

Legend:
HER-2 = molecular target: T1, HER-2 (Homo sapiens, UniProt P04626); experiment: HER-2 Kinase Assay; format: biochemical; conditions: for IC50: value in parentheses; for inhibition at 1 µM: test concentration of 1 μM
T1 construct: His6 with thrombin site (N); purchased Proqinase (Freiburg, Germany)
Method in brief: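 GST/HIS6-tagged HER-2 aa 679–1255 kinase with biotinylated polyGluTyr (1.5 ng/μL), 1 μM ATP plus γ-33P-ATP, Mg2+/Mn2+, DTT, Hepes pH 7.5; 1 h at 30 °C. Substrate phosphorylation captured on streptavidin scintillation plates after EDTA/PBS washes; values are % inhibition at 1 μM or IC50.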

EGFR = molecular target: T2, EGFR (Homo sapiens, UniProt P00533); experiment: EGFR Kinase Assay; format: biochemical; conditions: for IC50: GST-EGFR, ATP 5 μM; for inhibition at 2 µM: test concentration of 2 μM, compounds without an IC50, read-out: EGFR inhibition in percent
T2 construct: The intracellular portion of EGFR started at nucleotide 2189 (corresponding to amino acid 667) and ended at the termination codon; made in house; host or cells: Sf9 insect cells (baculovirus)
Method in brief: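 GST-fused human EGFR intracellular domain (from aa 667), Sf9-expressed, phosphorylated biotinylated polyGluTyr with 5 μM ATP plus γ-33P ATP in Tris pH 8.0, MgCl2, vanadate, 1 mM DTT, 1 h at 30 °C. Streptavidin Flashplate scintillation read; triplicate 16-point half-log series from 200 uM; IC50 from % inhibition vs log concentration, else % inhibition at 2 μM.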

T2 sequence (P00533 669-1210 limits assumed): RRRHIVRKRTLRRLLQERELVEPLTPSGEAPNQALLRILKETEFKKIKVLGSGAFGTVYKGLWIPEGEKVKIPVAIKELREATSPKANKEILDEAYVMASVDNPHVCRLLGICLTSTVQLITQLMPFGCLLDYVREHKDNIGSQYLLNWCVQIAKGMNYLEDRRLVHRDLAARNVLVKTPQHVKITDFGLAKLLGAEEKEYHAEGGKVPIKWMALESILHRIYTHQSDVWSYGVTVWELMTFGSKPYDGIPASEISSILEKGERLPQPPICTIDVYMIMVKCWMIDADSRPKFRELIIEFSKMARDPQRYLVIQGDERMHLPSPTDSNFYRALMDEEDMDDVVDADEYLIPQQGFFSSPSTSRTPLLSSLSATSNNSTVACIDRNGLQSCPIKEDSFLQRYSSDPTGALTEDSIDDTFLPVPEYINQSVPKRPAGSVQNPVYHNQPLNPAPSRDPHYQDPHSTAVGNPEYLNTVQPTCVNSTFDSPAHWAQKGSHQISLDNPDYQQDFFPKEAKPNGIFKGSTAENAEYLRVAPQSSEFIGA
T1 sequence (P04626 679-1255): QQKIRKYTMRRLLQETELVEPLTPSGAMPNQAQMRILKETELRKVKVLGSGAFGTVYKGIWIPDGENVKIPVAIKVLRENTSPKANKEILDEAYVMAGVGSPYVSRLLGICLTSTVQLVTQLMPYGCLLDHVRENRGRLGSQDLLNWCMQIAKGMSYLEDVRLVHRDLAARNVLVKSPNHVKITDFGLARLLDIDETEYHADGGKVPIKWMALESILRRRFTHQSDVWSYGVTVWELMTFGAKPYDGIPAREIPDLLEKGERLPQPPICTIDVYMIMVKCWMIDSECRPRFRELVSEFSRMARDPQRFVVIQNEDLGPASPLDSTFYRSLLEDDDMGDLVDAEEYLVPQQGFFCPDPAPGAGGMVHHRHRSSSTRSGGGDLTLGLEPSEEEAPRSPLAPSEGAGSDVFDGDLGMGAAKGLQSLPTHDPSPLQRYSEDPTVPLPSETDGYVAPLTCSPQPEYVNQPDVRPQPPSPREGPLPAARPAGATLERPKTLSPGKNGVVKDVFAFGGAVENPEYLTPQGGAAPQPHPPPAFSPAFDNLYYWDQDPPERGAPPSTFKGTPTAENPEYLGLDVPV

| IC50 (HER-2) [nM] | IC50 (EGFR) [nM] | inhibition at 2 µM (EGFR) [%] | inhibition at 1 µM (HER-2) [%] | SMILES |
| --- | --- | --- | --- | --- |
| 7070 | – | 41 | – | O=C(Nc1ccc(CN2CCOCC2)cc1)c1sc2ncnc3c2c1NC(=O)N3c1c(Cl)cccc1Cl [Cpd 104, 5-(2,6-dichloro-phenyl)-4-oxo-4,5-dihydro-3H-1-thia-3,5,6,8-tetraaza-acenaphthylene-2-carboxylic acid (4-morpholin-4-ylmethyl-phenyl)-amide] |
| 779 | 70 | – | – | O=C(NCCN1CCOCC1)c1sc2ncnc3c2c1NC(=O)N3c1ccc2c(ccn2Cc2cccc(F)c2)c1 [Cpd 93, 5-[1-(3-fluoro-benzyl)-1H-indol-5-yl]-4-oxo-4,5-dihydro-3H-1-thia-3,5,6,8-tetraaza-acenaphthylene-2-carboxylic acid (2-morpholin-4-yl-ethyl)-amide] |
| – | – | 30 | -5 | COc1ccc(Cl)c(N2C(=O)Nc3c(C(=O)Nc4ccc(OCCN5CCOCC5)c(OC)c4)sc4ncnc2c34)c1 [Cpd 50, 5-(2-chloro-5-methoxy-phenyl)-4-oxo-4,5-dihydro-3H-1-thia-3,5,6,8-tetraaza-acenaphthylene-2-carboxylic acid [3-methoxy-4-(2-morpholin-4-yl-ethoxy)-phenyl]-amide] |
| 447 | 159 | – | 57 | O=C(Nc1ccc(NCCCN2CCOCC2)nc1)c1sc2ncnc3c2c1NC(=O)N3c1cccc(Br)c1 [Cpd 64, 5-(3-bromo-phenyl)-4-oxo-4,5-dihydro-3H-1-thia-3,5,6,8-tetraaza-acenaphthylene-2-carboxylic acid [6-(3-morpholin-4-yl-propylamino)-pyridin-3-yl]-amide] |
| 111 | 15 | – | 95 | COc1cc(NC(=O)c2sc3ncnc4c3c2NC(=O)N4c2ccc(Oc3ccccc3)cc2)ccc1OCCN1CCCCC1 [Cpd 100, 4-oxo-5-(4-phenoxy-phenyl)-4,5-dihydro-3H-1-thia-3,5,6,8-tetraaza-acenaphthylene-2-carboxylic acid [3-methoxy-4-(2-piperidin-1-yl-ethoxy)-phenyl]-amide] |
| 148 | 43 | – | – | Cc1ccc(N2C(=O)Nc3c(C(=O)Nc4ccc(CN5CCOCC5)cc4)sc4ncnc2c34)cc1Br [Cpd 108, 5-(3-bromo-4-methyl-phenyl)-4-oxo-4,5-dihydro-3H-1-thia-3,5,6,8-tetraaza-acenaphthylene-2-carboxylic acid (4-morpholin-4-ylmethyl-phenyl)-amide] |
| 684 | 344 | – | – | Cc1ccc(Br)cc1N1C(=O)Nc2c(C(=O)Nc3ccc(CN4CCOCC4)cc3)sc3ncnc1c23 [Cpd 109, 5-(5-bromo-2-methyl-phenyl)-4-oxo-4,5-dihydro-3H-1-thia-3,5,6,8-tetraaza-acenaphthylene-2-carboxylic acid (4-morpholin-4-ylmethyl-phenyl)-amide] |
| > 100000 | – | 11 | – | O=C(Nc1ccc(CN2CCOCC2)cc1)c1sc2ncnc3c2c1NC(=O)N3c1ccc(N2CCOCC2)cc1 [Cpd 123, 5-(4-morpholin-4-yl-phenyl)-4-oxo-4,5-dihydro-3H-1-thia-3,5,6,8-tetraaza-acenaphthylene-2-carboxylic acid (4-morpholin-4-ylmethyl-phenyl)-amide] |

Continued, molecule first:

| SMILES | IC50 (HER-2) [nM] | IC50 (EGFR) [nM] | inhibition at 2 µM (EGFR) [%] | inhibition at 1 µM (HER-2) [%] |
| --- | --- | --- | --- | --- |
| O=C(Nc1ccc(CN2CCOCC2)cc1)c1sc2ncnc3c2c1NC(=O)N3c1ccc(Sc2ccccc2)cc1 [Cpd 178, 4-oxo-5-(4-phenylsulfanyl-phenyl)-4,5-dihydro-3H-1-thia-3,5,6,8-tetraaza-acenaphthylene-2-carboxylic acid (4-morpholin-4-ylmethyl-phenyl)-amide] | 56 | 77 | – | – |
| CN1CCC(NC(=O)c2sc3ncnc4c3c2NC(=O)N4c2ccc(Oc3ccc(F)cc3)cc2)CC1 [Cpd 118, 5-[4-(4-fluoro-phenoxy)-phenyl]-4-oxo-4,5-dihydro-3H-1-thia-3,5,6,8-tetraaza-acenaphthylene-2-carboxylic acid (1-methyl-piperidin-4-yl)-amide] | ~100000 | 132 | – | – |
| COc1cc(N2C(=O)Nc3c(C(=O)Nc4ccc(CN5CCCC5)cc4)sc4ncnc2c34)c(Cl)cc1Cl [Cpd 43, 5-(2,4-dichloro-5-methoxy-phenyl)-4-oxo-4,5-dihydro-3H-1-thia-3,5,6,8-tetraaza-acenaphthylene-2-carboxylic acid (4-pyrrolidin-1-ylmethyl-phenyl)-amide] | – | – | 47 | 21 |
| O=C(Nc1ccc(CN2CCOCC2)cc1)c1sc2ncnc3c2c1NC(=O)N3c1cccc(Br)c1 [Cpd 36, 5-(3-bromo-phenyl)-4-oxo-4,5-dihydro-3H-1-thia-3,5,6,8-tetraaza-acenaphthylene-2-carboxylic acid (4-morpholin-4-ylmethyl-phenyl)-amide] | 295 | 184 | – | 60 |
| CN1CCN(Cc2ccc(NC(=O)c3sc4ncnc5c4c3NC(=O)N5c3ccc(OCc4ccccn4)c(Cl)c3)cc2)CC1 [Cpd 90, 5-[3-chloro-4-(pyridin-2-ylmethoxy)-phenyl]-4-oxo-4,5-dihydro-3H-1-thia-3,5,6,8-tetraaza-acenaphthylene-2-carboxylic acid [4-(4-methyl-piperazin-1-ylmethyl)-phenyl]-amide] | 503 | 112 | – | 82 |
| O=C(O)c1sc2ncnc3c2c1NC(=O)N3c1ccc2c(ccn2Cc2cccc(F)c2)c1 [Cpd 77, 5-[1-(3-fluoro-benzyl)-1H-indol-5-yl]-4-oxo-4,5-dihydro-3H-1-thia-3,5,6,8-tetraaza-acenaphthylene-2-carboxylic acid] | 1370 | 164 | – | – |
| COc1ccc(NC(=O)c2sc3ncnc4c3c2NC(=O)N4c2ccc(OCc3ccccn3)c(Cl)c2)cc1OC [Cpd 48, 5-[3-chloro-4-(pyridin-2-ylmethoxy)-phenyl]-4-oxo-4,5-dihydro-3H-1-thia-3,5,6,8-tetraaza-acenaphthylene-2-carboxylic acid (3,4-dimethoxy-phenyl)-amide] | – | 61 | – | 45 |
| O=C(NCCCN1CCOCC1)c1sc2ncnc3c2c1NC(=O)N3c1ccc2c(ccn2Cc2cccc(F)c2)c1 [Cpd 95, 5-[1-(3-fluoro-benzyl)-1H-indol-5-yl]-4-oxo-4,5-dihydro-3H-1-thia-3,5,6,8-tetraaza-acenaphthylene-2-carboxylic acid (3-morpholin-4-yl-propyl)-amide] | 350 | 69 | – | – |
| CCOC(=O)c1sc2ncnc3c2c1NC(=O)N3c1cc(Br)ccc1C [Cpd 103, 5-(5-bromo-2-methyl-phenyl)-4-oxo-4,5-dihydro-3H-1-thia-3,5,6,8-tetraaza-acenaphthylene-2-carboxylic acid ethyl ester] | > 100000 | – | 21 | – |
